The source of these data is US8778923B2, “GLP-1 receptor modulators” (Receptos, Inc., priority 2011, dated 2014).

Each structure is given as a SMILES string.

The experiment deals with T1, GLP-1R (Homo sapiens, UniProt P43220).
T1 construct: host or cells: CRE-bla CHO-K1
T1 sequence (P43220 24-463): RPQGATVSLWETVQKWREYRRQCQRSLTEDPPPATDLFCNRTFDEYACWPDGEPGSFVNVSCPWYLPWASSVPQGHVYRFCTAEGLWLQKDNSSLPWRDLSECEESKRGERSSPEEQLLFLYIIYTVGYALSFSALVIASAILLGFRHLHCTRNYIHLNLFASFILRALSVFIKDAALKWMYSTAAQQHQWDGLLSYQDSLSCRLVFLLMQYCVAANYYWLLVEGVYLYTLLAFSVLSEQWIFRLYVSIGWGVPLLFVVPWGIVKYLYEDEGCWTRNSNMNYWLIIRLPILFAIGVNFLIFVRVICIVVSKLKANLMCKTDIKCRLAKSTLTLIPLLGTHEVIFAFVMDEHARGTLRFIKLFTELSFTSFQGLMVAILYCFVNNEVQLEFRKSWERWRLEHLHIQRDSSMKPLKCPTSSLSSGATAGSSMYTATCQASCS
T1 sequence (P01275 100-127 partner limits assumed): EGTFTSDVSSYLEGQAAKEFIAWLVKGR
Briefly: EC20 GLP-1(9-36) PAM cAMP assay: dose response of compound in the presence of fixed concentration of GLP-1(9-36). It is filed as cell-based. The following applies: GLP-1R CRE-bla CHO-K1 cells, compound dose response in presence of fixed concentration of GLP-1(9-36). The procedure, abridged:
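Positive allosteric modulation read as cAMP rise: 12-point compound titration combined with a fixed EC20 level of GLP-1(9-36) on GLP-1R CHO-K1 cells, IBMX present, 30 min at 37 °C. Luminescent HitHunter signal converted to cAMP; nonlinear fit gave EC50 and Emax.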
In the case of `CCCCCCCOc1ccc(-c2cnc(-c3ccc(C[C@H](NC(=O)c4cnn(C(C)(C)C)c4)C(=O)O)cc3)nc2)cc1` [Compound 143], the EC50 was less than 0.8 µM.
To `CCCCCCCOc1ccc(-c2cnc(-c3ccc(C[C@H](NC(=O)c4ccn(C(C)C)n4)C(=O)O)cc3)nc2)cc1` [Compound 144] belongs 0.8 to 2.5 µM; to `CCCCCCCOc1ccc(-c2cnc(-c3ccc(C[C@H](NC(=O)c4cc(C)c(CC)s4)C(=O)O)cc3)nc2)cc1` [Compound 145], 0.8 to 2.5 µM.
In the case of `CCCCCCCOc1ccc(-c2cnc(-c3ccc(C[C@H](NC(=O)c4csc(C(C)C)c4)C(=O)O)cc3)nc2)cc1` [Compound 146] it was 2.5 to 5 µM; in that of `CCCCCCCOc1ccc(-c2cnc(-c3ccc(C[C@H](NC(=O)c4ccc(CCC)s4)C(=O)O)cc3)nc2)cc1` [Compound 147], 2.5 to 5 µM; in that of `CCCCCCCOc1ccc(-c2cnc(-c3ccc(C[C@H](NC(=O)c4cnc(C(C)C)s4)C(=O)O)cc3)nc2)cc1` [Compound 148], 0.8 to 2.5 µM.
To `CCCCCCCOc1ccc(-c2cnc(-c3ccc(C[C@H](NC(=O)c4cc5c(s4)CCCC5)C(=O)O)cc3)nc2)cc1` [Compound 149] belongs 0.8 to 2.5 µM.
On to `CCCCCCCOc1ccc(-c2cnc(-c3ccc(C[C@H](NC(=O)c4cc5c(s4)CCC5)C(=O)O)cc3)nc2)cc1` [Compound 150], for which the concentration for a half-maximal effect (EC50) lay within 0.8 to 2.5 µM.
In the case of `CCCCCCCOc1ccc(-c2cnc(-c3ccc(C[C@H](NC(=O)c4cc5c(s4)CCC(C)C5)C(=O)O)cc3)nc2)cc1` (some centres unmarked) [Compound 151] it was 0.8 to 2.5 µM; in that of `CCCCCCCOc1ccc(-c2cnc(-c3ccc(C[C@H](NC(=O)c4ccc(C(C)C)s4)C(=O)O)cc3)nc2)cc1` [Compound 152], 0.8 to 2.5 µM; in that of `CCCCCCCOc1ccc(-c2cnc(-c3ccc(C[C@H](NC(=O)c4ccc(CC(C)C)s4)C(=O)O)cc3)nc2)cc1` [Compound 153], 0.8 to 2.5 µM.
In the case of `CCCCCCCOc1ccc(-c2cnc(-c3ccc(C[C@H](NC(=O)c4ccc(C(C)=O)s4)C(=O)O)cc3)nc2)cc1` [Compound 154] it was less than 0.8 µM; in that of `CCCCCCCOc1ccc(-c2cnc(-c3ccc(C[C@H](NC(=O)Cc4cc5ccccc5s4)C(=O)O)cc3)nc2)cc1` [Compound 155], 0.8 to 2.5 µM.
In the case of `CCCCCCCOc1ccc(-c2cnc(-c3ccc(C[C@H](NC(=O)c4cc5ccccc5s4)C(=O)O)cc3)nc2)cc1` [Compound 156] it was 0.8 to 2.5 µM.
On to `CCCCCCCOc1ccc(-c2cnc(-c3ccc(C[C@H](NC(=O)c4cc5ccc(C)cc5s4)C(=O)O)cc3)nc2)cc1` [Compound 157], for which the EC50 fell in the range of 0.8 to 2.5 µM.
`CCCCCCCOc1ccc(-c2cnc(-c3ccc(C[C@H](NC(=O)c4cc5cccnc5s4)C(=O)O)cc3)nc2)cc1` [Compound 158]: the EC50 was less than 0.8 µM.
In the case of `CC(C)(C)c1ccc(-c2cnc(-c3ccc(C[C@H](NC(=O)c4ccc(S(C)(=O)=O)cc4)C(=O)O)cc3)nc2)cc1` [Compound 159] it was 0.8 to 2.5 µM; in that of `CCc1ccc(C(=O)N[C@@H](Cc2ccc(-c3ncc(-c4ccc(C(C)(C)C)cc4)cn3)cc2)C(=O)O)cc1` [Compound 160], 0.8 to 2.5 µM; in that of `CC(C)c1ccc(C(=O)N[C@@H](Cc2ccc(-c3ncc(-c4ccc(C(C)(C)C)cc4)cn3)cc2)C(=O)O)cc1` [Compound 161], 0.8 to 2.5 µM.
As for `CC(C)Oc1ccc(C(=O)N[C@@H](Cc2ccc(-c3ncc(-c4ccc(C(C)(C)C)cc4)cn3)cc2)C(=O)O)cc1` [Compound 162], the EC50 was in the range of 0.8 to 2.5 µM.
Consider `CC(C)Cc1ccc(C(=O)N[C@@H](Cc2ccc(-c3ncc(-c4ccc(C(C)(C)C)cc4)cn3)cc2)C(=O)O)cc1` [Compound 163], for which the EC50 lay within 0.8 to 2.5 µM.
In the case of `CCCc1ccc(C(=O)N[C@@H](Cc2ccc(-c3ncc(-c4ccc(C(C)(C)C)cc4)cn3)cc2)C(=O)O)cc1` [Compound 164] it was 0.8 to 2.5 µM; in that of `CC(C)(C)c1ccc(-c2cnc(-c3ccc(C[C@H](NC(=O)c4ccc(C(C)(C)C)s4)C(=O)O)cc3)nc2)cc1` [Compound 165], 0.8 to 2.5 µM.
